According to PubChem BioAssay AID1918930 (Molecular Pharmacology Branch, DTP, NCI, 2023):
pIC50: −log10 of the molar value.

Tested on: 233499-124-R-J3-PDC complex spheroid viability, % test/control
Assay: Anticancer human tumor 233499-124-R-J3-PDC patient-derived colon adenocarcinoma cell line growth inhibition
Conditions: for pIC50: curve of first compound; for viability, T/C: stronger effect = lower value
Excerpt: Multicellular complex tumor spheroid response to LSD1 Inhibitor Iadademstat in combination with a variety of drugs and investigational agents in selected tumor cell lines
The current study was undertaken to assess response to LSD1 inhibitors in combination with standard-of-care drugs and investigational agents in solid tumor complex spheroid models as well as in the K-562 leukemia. Complex spheroids include a stromal component modeled by human endothelial cells (HUVEC) and fibroblasts modeled by human mesenchymal stem cells (MSCs). The concentration ranges selected for each drug and investigational agent were based upon clinically achievable concentrations if the clinical Cmax of the agent was known.
Compounds. The drugs and investigational agents used in this study are listed on Table 1. All of the agents used, including staurosporine (NSC755774) and gemcitabine (NSC613327), were obtained from the Developmental Therapeutics Program, NCI. FDA-approved anticancer drugs are available from the NCI at http://dtp.nci.nih.gov/branches/dscb/oncology_drugset_explanation.html. Drugs and investigational agents were >95% pure by proton nuclear magnetic resonance (NMR) and liquid chromatography/mass spectrometry (LC/MS). Stock solutions were prepared at 400x in DMSO, stored at -70 degrees C, and diluted in fresh medium prior to their use. The final concentration of DMSO in cell culture wells never exceeded 0.25% (v/v). The FDA-approved anticancer drug set is available from the Developmental Therapeutics Program at https://dtp.cancer.gov/organization/dscb/obtaining/available_plates.htm. All drugs and investigational agents were tested over a range starting from a high concentration at or near the clinical Cmax and decreasing in half-log increments. If the clinical Cmax for an agent had not been determined, the highest concentration tested was 10 microM.
Cell Lines. The patient-derived cancer cell (PDC) lines: 292921-168-R-J2-PDC, K24384-001-R-PDC, and 521955-158-R2-J5-PDC pancreatic carcinomas, 556581-035-R-J1 ovarian carcinoma, 324938-238-R-J1-PDC, 855422-203-R-J1-PDC and 883617-216-R-J1-PDC urothelial bladder carcinomas, 743489-274-T-PDC renal cell carcinoma, 138582-R-J1 Merkel cell tumor, K60290-347-R-J1 and K57222-313-R-J1-PDC glioblastomas, 653999-131-R-J2-PDC, LG0703-F948-PDC, and 349418-098-R-PDC non-small cell lung carcinomas, 885512-296-R-J2-PDC, 171881-019-R-J1-PDC breast carcinomas and 186277-243-T-J2-PDC and 233499-124-R-J2-PDC colon carcinomas were obtained from the NCI Patient-Derived Models Repository (PDMR, https://pdmr.cancer.gov). The established cell lines NCI/ADR-RES (RRID:CVCL_14520 and OVCAR-5 (RRID:CVCL_1628) ovarian carcinomas, 786-O (RRID:CVCL_1051) and A498 (RRID:CVCL_A498) renal cell carcinoma, NCI-H211 (ATCC, cat. CRL-5824; RRID:CVCL_1529), NCI-H196 (ATCC, cat. CRL-5823, RRID:CVCL_1509), SW 1271 (ATCC, cat. CRL-2177, RRID:CVCL_1716) and NCI-H1876 (ATCC, cat. CRL-5902, RRID:CVCL_1503) small cell lung carcinomas, MDA-MB-231 (RRID:CVCL_0062) and MDA-MB-468 (RRID:CVCL_0419)breast carcinomas (10-12). Pooled donor human umbilical vein endothelial cells (HUVEC, Lonza, cat. CC-2519) and human mesenchymal stem cells (hMSC, Lonza, cat. PT-2501) were purchased from Lonza (Walkersville, MD).
Cell Culture. All cells were maintained in an incubator at 37 degrees C and 5% CO2 with 95% humidity. The PDC lines were cultured according to standard operating procedures established by the NCI PDMR (https://pdmr.cancer.gov). Briefly all PDCs were thawed and cultured in Matrigel-coated flasks prepared with a working solution of 1X Ham's F-12 nutrient mix, without supplementation (Invitrogen, Waltham, MA, cat. 11765054), 100 U/mL penicillin-streptomycin (Invitrogen, cat. 15140122), and 2.5% Matrigel (Corning Inc., Corning, NY, cat. 354248) for the first three passages. […]

[1] = second compound 0.1 µM, first compound 0.000949 µM
[2] = second compound 0.1 µM, first compound 0.003 µM
[3] = second compound 0.1 µM, first compound 0.00949 µM
[4] = second compound 0.1 µM, first compound 0.03 µM
[5] = second compound 0.1 µM, first compound 0.0949 µM
[6] = second compound 0.1 µM, first compound 0.3 µM
[7] = second compound 0.316 µM, first compound 0.000949 µM
[8] = second compound 0.316 µM, first compound 0.003 µM
[9] = second compound 0.316 µM, first compound 0.00949 µM
[10] = second compound 0.316 µM, first compound 0.03 µM
[11] = second compound 0.316 µM, first compound 0.0949 µM
[12] = second compound 0.316 µM, first compound 0.3 µM
[13] = second compound 1 µM, first compound 0.000949 µM
[14] = second compound 1 µM, first compound 0.003 µM
[15] = second compound 1 µM, first compound 0.00949 µM
[16] = second compound 1 µM, first compound 0.03 µM
[17] = second compound 1 µM, first compound 0.0949 µM
[18] = second compound 1 µM, first compound 0.3 µM
[19] = second compound 3.16 µM, first compound 0.000949 µM
[20] = second compound 3.16 µM, first compound 0.003 µM
[21] = second compound 3.16 µM, first compound 0.00949 µM
[22] = second compound 3.16 µM, first compound 0.03 µM
[23] = second compound 3.16 µM, first compound 0.0949 µM
[24] = second compound 3.16 µM, first compound 0.3 µM
[25] = second compound 10 µM, first compound 0.000949 µM
[26] = second compound 10 µM, first compound 0.003 µM
[27] = second compound 10 µM, first compound 0.00949 µM
[28] = second compound 10 µM, first compound 0.03 µM
[29] = second compound 10 µM, first compound 0.0949 µM
[30] = second compound 10 µM, first compound 0.3 µM
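Note: spheroids exposed to agents for one week before readout.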

CCc1c2c(nc3ccc(O)cc13)-c1cc3c(c(=O)n1C2)COC(=O)[C@]3(O)CC + NC1CC1c1ccc(-c2cccc(O)c2)cc1
pIC50 (second compound 0.1 µM): 7.59
pIC50 (second compound 0.316 µM): 7.65
pIC50 (second compound 1 µM): 7.61
pIC50 (second compound 3.16 µM): 7.56
pIC50 (second compound 10 µM): 7.30
viability, T/C [1]: 88%
viability, T/C [2]: 122%
viability, T/C [3]: 90.8%
viability, T/C [4]: 44.2%
viability, T/C [5]: 27.7%
viability, T/C [6]: 29.5%
viability, T/C [7]: 103%
viability, T/C [8]: 112%
viability, T/C [9]: 88.1%
viability, T/C [10]: 38.3%
viability, T/C [11]: 25.2%
viability, T/C [12]: 30.3%
viability, T/C [13]: 70.4%
viability, T/C [14]: 112%
viability, T/C [15]: 101%
viability, T/C [16]: 40.6%
viability, T/C [17]: 19.6%
viability, T/C [18]: 30.4%
viability, T/C [19]: 77.6%
viability, T/C [20]: 109%
viability, T/C [21]: 98.6%
viability, T/C [22]: 46.4%
viability, T/C [23]: 31.5%
viability, T/C [24]: 24.6%
viability, T/C [25]: 65.1%
viability, T/C [26]: 88.5%
viability, T/C [27]: 105%
viability, T/C [28]: 59.7%
viability, T/C [29]: 43.8%
viability, T/C [30]: 32.4%

Nc1ccn(C2OC(CO)C(O)C2(F)F)c(=O)n1 (stereo not given) + NC1CC1c1ccc(-c2cccc(O)c2)cc1
pIC50 (second compound 0.1 µM): 7.06
pIC50 (second compound 0.316 µM): 7.13
pIC50 (second compound 1 µM): 7.48
pIC50 (second compound 3.16 µM): 7.25
pIC50 (second compound 10 µM): 7.46
viability, T/C [1]: 111%
viability, T/C [2]: 97.9%
viability, T/C [3]: 104%
viability, T/C [4]: 72.4%
viability, T/C [5]: 49.4%
viability, T/C [6]: 45.2%
viability, T/C [7]: 85.1%
viability, T/C [8]: 96.1%
viability, T/C [9]: 75.3%
viability, T/C [10]: 69.9%
viability, T/C [11]: 41%
viability, T/C [12]: 41.7%
viability, T/C [13]: 96.1%
viability, T/C [14]: 84.7%
viability, T/C [15]: 78.1%
viability, T/C [16]: 49.2%
viability, T/C [17]: 41.2%
viability, T/C [18]: 38.7%
viability, T/C [19]: 92.3%
viability, T/C [20]: 95.6%
viability, T/C [21]: 72.7%
viability, T/C [22]: 60.1%
viability, T/C [23]: 39.1%
viability, T/C [24]: 46.2%
viability, T/C [25]: 83.5%
viability, T/C [26]: 69.4%
viability, T/C [27]: 74.8%
viability, T/C [28]: 52.5%
viability, T/C [29]: 32.8%
viability, T/C [30]: 35.1%

O=C(c1cc(Cc2n[nH]c(=O)c3ccccc23)ccc1F)N1CCN(C(=O)C2CC2)CC1 + NC1CC1c1ccc(-c2cccc(O)c2)cc1
pIC50 (second compound 0.1 µM): < 5.00
pIC50 (second compound 0.316 µM): < 5.00
pIC50 (second compound 1 µM): < 5.00
pIC50 (second compound 3.16 µM): < 5.00
pIC50 (second compound 10 µM): < 5.00
viability, T/C (second compound 0.1 µM, first compound 0.0316 µM): 96.9%
viability, T/C (second compound 0.1 µM, first compound 0.1 µM): 92.2%
viability, T/C (second compound 0.1 µM, first compound 0.316 µM): 98.5%
viability, T/C (second compound 0.1 µM, first compound 1 µM): 97.8%
viability, T/C (second compound 0.1 µM, first compound 3.16 µM): 100%
viability, T/C (second compound 0.1 µM, first compound 10 µM): 73.2%
viability, T/C (second compound 0.316 µM, first compound 0.0316 µM): 94.2%
viability, T/C (second compound 0.316 µM, first compound 0.1 µM): 106%
viability, T/C (second compound 0.316 µM, first compound 0.316 µM): 106%
viability, T/C (second compound 0.316 µM, first compound 1 µM): 87.2%
viability, T/C (second compound 0.316 µM, first compound 3.16 µM): 91.1%
viability, T/C (second compound 0.316 µM, first compound 10 µM): 79.3%
viability, T/C (second compound 1 µM, first compound 0.0316 µM): 78.3%
viability, T/C (second compound 1 µM, first compound 0.1 µM): 91.6%
viability, T/C (second compound 1 µM, first compound 0.316 µM): 91.6%
viability, T/C (second compound 1 µM, first compound 1 µM): 79%
viability, T/C (second compound 1 µM, first compound 3.16 µM): 73.4%
viability, T/C (second compound 1 µM, first compound 10 µM): 68.5%
viability, T/C (second compound 3.16 µM, first compound 0.0316 µM): 87.6%
viability, T/C (second compound 3.16 µM, first compound 0.1 µM): 83.4%
viability, T/C (second compound 3.16 µM, first compound 0.316 µM): 71.6%
viability, T/C (second compound 3.16 µM, first compound 1 µM): 84.6%
viability, T/C (second compound 3.16 µM, first compound 3.16 µM): 66.5%
viability, T/C (second compound 3.16 µM, first compound 10 µM): 63%
viability, T/C (second compound 10 µM, first compound 0.0316 µM): 77.6%
viability, T/C (second compound 10 µM, first compound 0.1 µM): 75.1%
viability, T/C (second compound 10 µM, first compound 0.316 µM): 71.9%
viability, T/C (second compound 10 µM, first compound 1 µM): 68%
viability, T/C (second compound 10 µM, first compound 3.16 µM): 58.6%
viability, T/C (second compound 10 µM, first compound 10 µM): 62.7%
